Results reported in patent US8148415B2, “Sulfamic acid ester compounds useful in the inhibition of steroid sulphatase activity and aromatase activity” (Sterix Limited, priority 2004, dated 2012).
Like-named read-outs stand apart in the source and are kept apart here.

Columns and labels:
rats = conditions: rat, in vivo, cited from earlier work
Steroid sulphatase [1] = biological target: T1, Steroid sulphatase (Homo sapiens, UniProt P08842); conditions: cited from earlier work
T1 sequence (P08842 22-583): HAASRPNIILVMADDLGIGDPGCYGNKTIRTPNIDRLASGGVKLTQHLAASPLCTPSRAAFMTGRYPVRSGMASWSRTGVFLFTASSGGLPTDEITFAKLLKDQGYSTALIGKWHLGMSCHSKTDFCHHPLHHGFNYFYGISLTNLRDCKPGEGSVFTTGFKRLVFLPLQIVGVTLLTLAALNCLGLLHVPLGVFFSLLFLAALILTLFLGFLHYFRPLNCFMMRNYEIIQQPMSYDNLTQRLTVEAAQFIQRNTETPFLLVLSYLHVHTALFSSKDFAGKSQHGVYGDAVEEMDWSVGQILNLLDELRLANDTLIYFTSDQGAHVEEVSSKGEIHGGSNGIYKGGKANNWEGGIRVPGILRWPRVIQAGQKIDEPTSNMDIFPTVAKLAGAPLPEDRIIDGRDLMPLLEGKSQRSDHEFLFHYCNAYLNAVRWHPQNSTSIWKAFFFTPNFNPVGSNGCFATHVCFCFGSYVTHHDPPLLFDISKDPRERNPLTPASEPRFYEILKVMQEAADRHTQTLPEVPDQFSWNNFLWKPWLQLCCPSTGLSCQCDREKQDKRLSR

[2] = cited from earlier work
rat liver E1-STS = biological target: T2, rat liver E1-STS (Rattus norvegicus, UniProt P15589); conditions: administered orally or subcutaneously; cited from earlier work
T2 construct: from tissue; host or cells: rat liver
T2 sequence (P15589 20-577): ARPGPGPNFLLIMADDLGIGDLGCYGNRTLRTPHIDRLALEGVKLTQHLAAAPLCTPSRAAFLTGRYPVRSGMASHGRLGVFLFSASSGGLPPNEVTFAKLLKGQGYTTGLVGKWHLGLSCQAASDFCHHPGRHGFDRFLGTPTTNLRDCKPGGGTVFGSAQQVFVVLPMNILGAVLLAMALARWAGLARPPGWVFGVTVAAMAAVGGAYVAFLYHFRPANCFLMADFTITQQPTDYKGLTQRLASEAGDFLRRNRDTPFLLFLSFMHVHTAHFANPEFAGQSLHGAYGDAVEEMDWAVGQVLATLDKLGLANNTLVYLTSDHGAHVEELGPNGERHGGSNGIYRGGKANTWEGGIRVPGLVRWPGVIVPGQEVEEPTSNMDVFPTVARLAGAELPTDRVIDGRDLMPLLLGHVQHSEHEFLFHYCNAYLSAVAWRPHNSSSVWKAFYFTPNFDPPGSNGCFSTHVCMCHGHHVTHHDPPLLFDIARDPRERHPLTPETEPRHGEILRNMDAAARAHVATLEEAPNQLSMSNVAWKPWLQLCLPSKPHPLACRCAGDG

E1-STS = biological target: T3, E1-STS (Homo sapiens, UniProt P08842); conditions: intact MCF-7 cells, 0.1 nM; cited from earlier work
T3 construct: endogenous in cells; host or cells: MCF-7 cells
T3 sequence (P08842 22-583): T1 sequence (P08842 22-583)

rat liver DHEA-STS = biological target: T4, rat liver DHEA-STS (Rattus norvegicus, UniProt P15589); conditions: administered orally or subcutaneously; cited from earlier work
T4 construct: rat liver E1-STS (99%) and DHEA-STS (99%) activities; from tissue; host or cells: rat liver
T4 sequence (P15589 20-577): T2 sequence (P15589 20-577)

Aromatase = biological target: T5, Aromatase (Homo sapiens, UniProt P11511); test: Aromatase activity in intact JEG3 choriocarcinoma cells (Protocol 6); format: cell-based
T5 construct: Aromatase activity is measured in JEG3 choriocarcinoma cells, obtained from the ATCC; host or cells: JEG3 choriocarcinoma cells
T5 sequence (P11511 1-503): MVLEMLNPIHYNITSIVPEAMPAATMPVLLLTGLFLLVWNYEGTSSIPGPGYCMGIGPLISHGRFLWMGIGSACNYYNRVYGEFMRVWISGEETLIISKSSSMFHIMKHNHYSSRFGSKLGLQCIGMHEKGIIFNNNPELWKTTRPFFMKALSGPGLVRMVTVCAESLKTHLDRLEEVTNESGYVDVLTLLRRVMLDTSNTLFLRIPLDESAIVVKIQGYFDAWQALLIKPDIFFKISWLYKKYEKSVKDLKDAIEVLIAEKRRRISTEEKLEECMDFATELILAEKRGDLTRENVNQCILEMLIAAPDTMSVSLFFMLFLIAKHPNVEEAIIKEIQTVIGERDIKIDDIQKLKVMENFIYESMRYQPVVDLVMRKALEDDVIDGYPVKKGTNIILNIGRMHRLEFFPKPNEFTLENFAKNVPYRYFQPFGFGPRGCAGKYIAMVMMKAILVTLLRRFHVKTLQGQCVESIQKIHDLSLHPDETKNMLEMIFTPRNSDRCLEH

Steroid sulphatase [3] = biological target: T1, Steroid sulphatase; test: Inhibition of steroid sulphatase activity in intact JEG3 cells (Protocol 1); format: cell-based; parameters: host or cells: JEG3 choriocarcinoma cells; conditions: read-out: JEG3 cells IC50 Sulfatase
Procedure: Assay for Determining STS Activity Using Cancer Cells
Inhibition of Steroid Sulphatase Activity in JEG3 Cells
Steroid sulphatase activity is measured in vitro using intact JEG3 choriocarcinoma cells. This cell line may be used to study the control of human breast cancer cell growth.
Cells are maintained in Minimal Essential Medium (MEM) (Flow Laboratories, Irvine, Scotland) containing 20 mM HEPES, 5% foetal bovine serum, 2 mM glutamine, non-essential amino acids and 0.075% sodium bicarbonate. Up to 30 replicate 25 cm2 tissue culture flasks are seeded with approximately 1×10^5 cells/flask using the above medium. Cells are grown to 80% confluency and the medium is changed every third day.
Intact monolayers of JEG3 cells in triplicate 25 cm^2 tissue culture flasks are washed with Earle's Balanced Salt Solution (EBSS from ICN Flow, High Wycombe, U.K.) and incubated for 3-4 hours at 37° C. with 5 pmol (7×10^5 dpm) [6,7-3H]oestrone-3-sulphate (specific activity 60 Ci/mmol from New England Nuclear, Boston, Mass., U.S.A.) in serum-free MEM (2.5 ml) together with oestrone-3-sulphamate (11 concentrations: 0; 1 fM; 0.01 pM; 0.1 pM; 1 pM; 0.01 nM; 0.1 nM; 1 nM; 0.01 mM; 0.1 mM; 1 mM). […] A portion (2 ml) of the organic phase is removed, evaporated and the 3H and 14C content of the residue determined by scintillation spectrometry. […]

Question: For `COc1ccc(C(c2ccc(OC)c(O)c2)n2cncn2)cc1O`, which melting point is on record?
Answer: 217.5 to 219 °C

Question: With `COc1cc2c(cc1OS(N)(=O)=O)CC[C@@H]1[C@@H]2CC[C@]2(C)C(=O)CC[C@@H]12` [2-methoxyoestrone-3-O-sulphamate] as the molecule, how does the oestrogenicity (rats) read?
Answer: devoid of oestrogenicity

Question: What about the “potency as steroid sulphatase inhibitor relative to EMATE” value (Steroid sulphatase [1]) of the same molecule?
Answer: equipotent with EMATE

Question: With `C[C@]12CC[C@@H]3c4ccc(OS(=O)(=O)O)cc4CC[C@H]3[C@@H]1CCC2=O` [E1S, oestrone sulphate] as the molecule, how does the half-life in blood [2] read?
Answer: 10 to 12 h

Question: What does the source list for `CC12CCC3c4ccc(OS(N)(=O)=O)cc4CCC3C1CCC2=O` (centres unmarked) [EMATE, oestrone-3-sulphamate]?
Answer: inhibition of rat liver E1-STS activity (rat liver E1-STS): 99%; oral uterotrophic activity relative to estradiol (rats; po): 100 times; inhibition of E1-STS activity (E1-STS): more than 99%; inhibition of rat liver DHEA-STS activity (rat liver DHEA-STS): 99%

Question: Which results are given for `N#Cc1ccc(N(Cc2cccc(OS(N)(=O)=O)c2)n2cnnc2)cc1` [STX334, 4-[(3-O-Sulfamoylbenzyl)(4-cyanophenyl)amino]-4H-[1,2,4]triazole]?
Answer: IC50 (Aromatase; intact JEG3 cells): 39 nM; IC50 (Steroid sulphatase [3]): 5130 nM

Question: Which IC50 (Aromatase) does the source give for `N#Cc1ccc(N(Cc2ccc(Br)c(OS(N)(=O)=O)c2)n2cnnc2)cc1` [STX1217, 4-[(4-Bromo-3-O-sulfamoylbenzyl)(4cyanophenyl)amino]-4H-[1,2,4]triazole] here?
Answer: 3.9 nM
